Measurements taken from patent publication US20220340597A1, “HEXAHYDRO-1H-PYRAZINO[1,2-A]PYRAZINE COMPOUNDS FOR THE TREATMENT OF AUTOIMMUNE DISEASE” (Hoffmann-La Roche Inc., priority 2019, published 2022).

Key:
[1] = target: T1, human TLR8 (Homo sapiens, UniProt Q9NR97); assay: HEK293-Blue-hTLR-8 cells assay
T1 sequence (Q9NR97 27-1041): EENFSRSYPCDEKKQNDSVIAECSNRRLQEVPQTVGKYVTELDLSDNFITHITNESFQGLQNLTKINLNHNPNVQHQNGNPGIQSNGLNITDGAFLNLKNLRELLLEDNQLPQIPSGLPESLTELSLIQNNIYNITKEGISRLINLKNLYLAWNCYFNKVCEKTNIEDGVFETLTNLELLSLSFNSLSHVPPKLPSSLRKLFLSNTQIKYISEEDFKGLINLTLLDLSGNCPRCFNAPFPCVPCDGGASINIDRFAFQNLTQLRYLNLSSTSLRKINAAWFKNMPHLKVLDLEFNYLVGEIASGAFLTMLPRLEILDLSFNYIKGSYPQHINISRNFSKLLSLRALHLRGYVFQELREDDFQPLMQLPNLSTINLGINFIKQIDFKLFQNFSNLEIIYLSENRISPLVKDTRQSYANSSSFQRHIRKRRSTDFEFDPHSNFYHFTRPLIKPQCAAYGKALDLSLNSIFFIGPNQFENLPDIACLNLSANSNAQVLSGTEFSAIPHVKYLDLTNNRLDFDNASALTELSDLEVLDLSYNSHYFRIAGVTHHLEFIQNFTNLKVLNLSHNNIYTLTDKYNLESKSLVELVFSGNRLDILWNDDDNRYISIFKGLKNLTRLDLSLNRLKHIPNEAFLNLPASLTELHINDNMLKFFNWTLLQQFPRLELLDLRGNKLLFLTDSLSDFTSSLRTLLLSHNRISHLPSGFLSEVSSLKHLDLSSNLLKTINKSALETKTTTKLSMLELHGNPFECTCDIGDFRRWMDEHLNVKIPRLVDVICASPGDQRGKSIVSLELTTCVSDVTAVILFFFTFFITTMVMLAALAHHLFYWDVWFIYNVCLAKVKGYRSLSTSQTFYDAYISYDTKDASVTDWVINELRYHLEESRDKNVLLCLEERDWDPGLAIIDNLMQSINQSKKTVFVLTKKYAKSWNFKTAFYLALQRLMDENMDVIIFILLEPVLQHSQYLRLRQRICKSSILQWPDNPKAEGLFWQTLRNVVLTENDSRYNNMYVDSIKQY

[2] = target: T2, human TLR9 (Homo sapiens, UniProt Q9NR96); assay: HEK293-Blue-hTLR-9 cells assay; assay type: cell-based; details: HEK293-Blue-hTLR9 cells, ODN2006 stimulation, 20 hrs, SEAP reporter; read-out: HEK/hTLR9 IC50
T2 construct: host or cells: HEK293 (HEK-Blue hTLR9)
T2 sequence (Q9NR96 26-1032): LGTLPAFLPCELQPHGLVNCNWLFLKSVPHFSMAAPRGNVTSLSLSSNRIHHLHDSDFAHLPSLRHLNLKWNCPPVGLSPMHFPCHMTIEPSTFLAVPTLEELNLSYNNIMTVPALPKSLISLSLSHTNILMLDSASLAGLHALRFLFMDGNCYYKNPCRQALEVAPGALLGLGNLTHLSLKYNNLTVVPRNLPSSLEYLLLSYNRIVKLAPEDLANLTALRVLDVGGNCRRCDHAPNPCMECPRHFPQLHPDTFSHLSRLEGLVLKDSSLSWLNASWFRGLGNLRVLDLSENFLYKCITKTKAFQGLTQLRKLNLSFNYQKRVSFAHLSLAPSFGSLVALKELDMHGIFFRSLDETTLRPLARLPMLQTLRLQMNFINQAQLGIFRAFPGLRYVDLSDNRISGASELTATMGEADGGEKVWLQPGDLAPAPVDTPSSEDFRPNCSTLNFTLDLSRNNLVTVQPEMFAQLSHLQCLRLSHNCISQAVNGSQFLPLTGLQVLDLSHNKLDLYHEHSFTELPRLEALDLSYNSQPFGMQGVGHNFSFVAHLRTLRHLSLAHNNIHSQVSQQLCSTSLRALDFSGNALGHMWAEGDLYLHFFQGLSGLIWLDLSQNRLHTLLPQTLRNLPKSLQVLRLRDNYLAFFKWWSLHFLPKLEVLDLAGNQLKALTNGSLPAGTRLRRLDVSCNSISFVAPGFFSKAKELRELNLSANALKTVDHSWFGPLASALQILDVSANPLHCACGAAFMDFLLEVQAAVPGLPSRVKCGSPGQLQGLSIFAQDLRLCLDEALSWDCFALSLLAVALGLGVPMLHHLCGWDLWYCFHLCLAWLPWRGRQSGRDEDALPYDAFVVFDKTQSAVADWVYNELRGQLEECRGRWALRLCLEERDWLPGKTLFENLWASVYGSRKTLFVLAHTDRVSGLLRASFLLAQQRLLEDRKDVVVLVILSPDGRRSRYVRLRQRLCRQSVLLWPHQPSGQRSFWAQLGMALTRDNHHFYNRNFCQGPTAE

## [2H]c1ccc2c(N3C[C@@H]4CN(Cc5ccc(N6CC[C@@](C)(N)C6)nc5C)CCN4[C@H](C)C3)ccc(C#N)c2n1 [Example 81, 5-[(4R,9aS)-8-[[6-[(3R)-3-amino-3-methyl-pyrrolidin-1-yl]-2-methyl-3-pyridyl]methyl]-4-methyl-3,4,6,7,9,9a-hexahydro-1H-pyrazino[1,2-a]pyrazin-2-yl]-2-deuterio-quinoline-8-carbonitrile]
[1]
  IC50: 0.005 µM
[2]
  IC50: < 0.032 µM

## [2H]c1ccc2c(N3C[C@@H]4CN(c5ncc(N6C[C@@H]7C[C@H]6CN7)cc5C)CCN4[C@H](C)C3)ccc(C#N)c2n1 [Example 95, 5-[(4R,9aR)-8-[5-[(1S,4S)-2,5-diazabicyclo[2.2.1]heptan-2-yl]-3-methyl-2-pyridyl]-4-methyl-3,4,6,7,9,9a-hexahydro-1H-pyrazino[1,2-a]pyrazin-2-yl]-2-deuterio-quinoline-8-carbonitrile]
[1]
  IC50: 0.006 µM
[2]
  IC50: 0.142 µM

## [2H]c1ccc2c(N3C[C@@H]4CN(Cc5cnc(N6CCNCC6)cc5C)CCN4[C@H](C)C3)ccc(C#N)c2n1 [Example 87, 5-[(4R,9aS)-4-methyl-8-[(4-methyl-6-piperazin-1-yl-3-pyridyl)methyl]-3,4,6,7,9,9a-hexahydro-1H-pyrazino[1,2-a]pyrazin-2-yl]-2-deuterio-quinoline-8-carbonitrile]
[1]
  IC50: 0.015 µM
[2]
  IC50: 0.052 µM

## [2H]c1ccc2c(N3C[C@@H]4CN(Cc5nc(N6CCNCC6)ccc5C)CCN4[C@H](C)C3)ccc(C#N)c2n1 [Example 88, 5-[(4R,9aS)-4-methyl-8-[(3-methyl-6-piperazin-1-yl-2-pyridyl)methyl]-3,4,6,7,9,9a-hexahydro-1H-pyrazino[1,2-a]pyrazin-2-yl]-2-deuterio-quinoline-8-carbonitrile]
[1]
  IC50: 0.01 µM
[2]
  IC50: 0.047 µM

## [2H]c1ccc2c(N3C[C@@H]4CN(Cc5cnc(N6C[C@@H]7C[C@H]6CN7)cc5C)CCN4[C@H](C)C3)ccc(C#N)c2n1 [Example 94, 5-[(4R,9aS)-8-[[6-[(1S,4S)-2,5-diazabicyclo[2.2.1]heptan-2-yl]-4-methyl-3-pyridyl]methyl]-4-methyl-3,4,6,7,9,9a-hexahydro-1H-pyrazino[1,2-a]pyrazin-2-yl]-2-deuterio-quinoline-8-carbonitrile]
[1]
  IC50: 0.008 µM
[2]
  IC50: 0.099 µM

## [2H]c1ccc2c(N3C[C@@H]4CN(Cc5ccc(N6CC7CCC(C6)N7)nc5C)CCN4[C@H](C)C3)ccc(C#N)c2n1 [Example 91, 5-[(4R,9aS)-8-[[6-(3,8-diazabicyclo[3.2.1]octan-3-yl)-2-methyl-3-pyridyl]methyl]-4-methyl-3,4,6,7,9,9a-hexahydro-1H-pyrazino[1,2-a]pyrazin-2-yl]-2-deuterio-quinoline-8-carbonitrile]
[1]
  IC50: 0.02 µM
[2]
  IC50: 0.045 µM

## C[C@@H]1CN(c2ccc(C#N)c3ncccc23)C[C@@H]2CN(Cc3ccc4c(c3)CNCC4)CCN21 (relative stereo) [Example 1]
[1]
  IC50: 0.01 µM
[2]
  IC50: 0.058 µM

## [2H]c1ccc2c(N3C[C@@H]4CN(Cc5ccc(N6CC7CC(C6)N7)nc5C)CCN4[C@H](C)C3)ccc(C#N)c2n1 [Example 90, 5-[(4R,9aS)-8-[[6-(3,6-diazabicyclo[3.1.1]heptan-3-yl)-2-methyl-3-pyridyl]methyl]-4-methyl-3,4,6,7,9,9a-hexahydro-1H-pyrazino[1,2-a]pyrazin-2-yl]-2-deuterio-quinoline-8-carbonitrile]
[1]
  IC50: 0.008 µM
[2]
  IC50: 0.033 µM

## Cc1nc(N2CCN[C@H](C)C2)ccc1CN1CCN2[C@@H](C1)CN(c1ccc(C#N)c3ncccc13)C[C@H]2C [Example 86, 5-[(4R,9aS)-4-methyl-8-[[2-methyl-6-[(3R)-3-methylpiperazin-1-yl]-3-pyridyl]methyl]-3,4,6,7,9,9a-hexahydro-1H-pyrazino[1,2-a]pyrazin-2-yl]quinoline-8-carbonitrile]
[1]
  IC50: 0.012 µM
[2]
  IC50: 0.062 µM

## [2H]c1ccc2c(N3C[C@@H]4CN(Cc5ccc(N6C[C@H]7NCCO[C@@H]7C6)nc5C)CCN4[C@H](C)C3)ccc(C#N)c2n1 [Example 98, 5-[(4R,9aS)-8-[[6-[(4aR,7aR)-3,4,4a,5,7,7a-hexahydro-2H-pyrrolo[3,4-b][1,4]oxazin-6-yl]-2-methyl-3-pyridyl]methyl]-4-methyl-3,4,6,7,9,9a-hexahydro-1H-pyrazino[1,2-a]pyrazin-2-yl]-2-deuterio-quinoline-8-carbonitrile]
[1]
  IC50: 0.01 µM
[2]
  IC50: 0.058 µM

## [2H]c1ccc2c(N3C[C@@H]4CN(Cc5ccc(N[C@H]6CNC[C@H]6F)nc5C)CCN4[C@H](C)C3)ccc(C#N)c2n1 [Example 82, 5-[(4R,9aS)-8-[[6-[[(3S,4R)-4-fluoropyrrolidin-3-yl]amino]-2-methyl-3-pyridyl]methyl]-4-methyl-3,4,6,7,9,9a-hexahydro-JH-pyrazino[1,2-a]pyrazin-2-yl]-2-deuterio-quinoline-8-carbonitrile]
[1]
  IC50: 0.003 µM
[2]
  IC50: 0.041 µM

## [2H]c1ccc2c(N3C[C@@H]4CN(Cc5ccc(N6CC7(CN(C)C7)C6)nc5C)CCN4[C@H](C)C3)ccc(C#N)c2n1 [Example 80, 5-[(4R,9aS)-4-methyl-8-[[2-methyl-6-(6-methyl-2,6-diazaspiro[3.3]heptan-2-yl)-3-pyridyl]methyl]-3,4,6,7,9,9a-hexahydro-1H-pyrazino[1,2-a]pyrazin-2-yl]-2-deuterio-quinoline-8-carbonitrile]
[1]
  IC50: 0.005 µM
[2]
  IC50: < 0.032 µM

## [2H]c1ccc2c(N3C[C@@H]4CN(c5ncc(N6C[C@@H](N)[C@@H](OC)C6)cc5C)CCN4[C@H](C)C3)ccc(C#N)c2n1 [Example 96, 5-[(4R,9aR)-8-[5-[(3R,4S)-3-amino-4-methoxy-pyrrolidin-1-yl]-3-methyl-2-pyridyl]-4-methyl-3,4,6,7,9,9a-hexahydro-1H-pyrazino[1,2-a]pyrazin-2-yl]-2-deuterio-quinoline-8-carbonitrile]
[1]
  IC50: 0.005 µM
[2]
  IC50: 0.189 µM

## [2H]c1ccc2c(N3C[C@@H]4CN(c5ncc(N6C[C@H]7NCCO[C@@H]7C6)cc5C)CCN4[C@H](C)C3)ccc(C#N)c2n1 [Example 100, 5-[(4R,9aR)-8-[5-[(4aR,7aR)-3,4,4a,5,7,7a-hexahydro-2H-pyrrolo[3,4-b][1,4]oxazin-6-yl]-3-methyl-2-pyridyl]-4-methyl-3,4,6,7,9,9a-hexahydro-1H-pyrazino[1,2-a]pyrazin-2-yl]-2-deuterio-quinoline-8-carbonitrile]
[1]
  IC50: 0.003 µM
[2]
  IC50: 0.173 µM

## Cc1cc(N2CCNCC2)cnc1N1CCN2[C@@H](C1)CN(c1cc(=O)n(C)c3ncccc13)C[C@H]2C [Example 93, 4-[(4R,9aR)-4-methyl-8-(3-methyl-5-piperazin-1-yl-2-pyridyl)-3,4,6,7,9,9a-hexahydro-1H-pyrazino[1,2-a]pyrazin-2-yl]-1-methyl-1,8-naphthyridin-2-one]
[1]
  IC50: 0.061 µM
[2]
  IC50: 0.186 µM
